For data set [1], the system named is MDA-MB-231 and MDA-MB-436 cells. Briefly: Colony formation assay. The class given is cell-based, human. On the set-up: unit of the concentration uncertain. To be noted: 12 days. On the procedure:
(§1) FIGS. 21A-21E show the apoptosis induction of p53-inactivated TNBC cells in 2D and 3D cultures by the MDM2-PROTAC YX-02-030. A-B. Colony formation assays (A. Triplicate, 12 days) and mammosphere formation (B. Triplicate 72 hrs) of MDA-MB-231 and MDA-MB-436 cells in the presence of the indicated compounds or DMSO control (−); representative pictures shown. C-E. Formed mammospheres of MDA-MB-231 and MDA-MB-436 cells were treated with the compounds indicated or DMSO control (−), and area (C. n=10 mammospheres, relative to pre-treatment area, 72 hr), real-time imaging (IncuCyte) and quantification of Caspase-3/7 activity (D. n=4-5 wells/compound), and survival/ATP assays (E. Quadruplicate, 72 hr) were performed; representative images shown; scale bar 300 m. Mean±SEM (A-C and E). For A, *P<0.0001 and **P<0.0001, comparing 1 M and 2 M PROTAC, respectively, to control compounds and DMSO vehicle control. For B, *P<0.0046, **P<0.0001, and ***P<0.0001, comparing 0.5 M, 1 M, and 2 M PROTAC, respectively, to control compounds and DMSO vehicle control. For C, *P<0.0001 and **P<0.0001, comparing 2 M and 4 M/6 M PROTAC, respectively, to control compounds and DMSO vehicle control. […]
The ability of the PROTAC-mediated degradation of MDM2 to alter the clonogenic potential of p53-inactivated TNBC cells was evaluated by performing colony formation assays with MDA-MB-231 and MDA-MB-436 cells. […]

For a further data set, the system named is MDA-MB-231 mammospheres. As to the kind of experiment: Area of formed mammospheres, MDA-MB-231. The class given is cell-based, human. To be noted: MDA-MB-231, 3-fold lower concentration than the MDM2 inhibitors, 72 hr. The protocol:
as §1
(§2) These were then evaluated in 3D culture as to when the YX-02-030 was effective at preventing TNBC cell mammosphere formation and eliminating already formed mammospheres. […]

A further data set relates to MDA-MB-436 mammospheres. As to the kind of experiment: Area of formed mammospheres, MDA-MB-436. The class given is cell-based, human. As to conditions: MDA-MB-436, 3-fold lower concentration than the MDM2 inhibitors, 72 hr. On the procedure: as §1, §2
Data set [2] is described as follows: Mouse pharmacokinetic study, intraperitoneal. The class given is in vivo. As to conditions: single 10 mg/kg intraperitoneal dose, 0.25-6 h. On the procedure:
To translate cell-based activity to in vivo efficacy, the Mdm2 PROTACs were evaluated for metabolic stability and plasma compound levels after IP injection in the mouse. Mouse liver microsome stability was obtained for lead compounds (Alliance Pharma, Inc; Malvern PA) as a predictive measure for suitable exposure in a mouse pharmacokinetic study. In brief, test compounds (0.5 μM) are incubated with liver microsomes ([…]) and an NADPH-regenerating system (cofactor solution) and samples are taken at various timepoints, quenched with an acetonitrile solution containing an internal standard, then analyzed by LC-MS/MS. […] Mouse pharmacokinetic studies for YX-02-030 and YX-02-288 were completed. Mouse plasma levels were evaluated following intraperitoneal (10 mg/kg) administration. Plasma was collected at timepoints 0.25 h, 0.5 h, 1 h, 2 h, 4 h and 6 h after Mdm2 PROTAC injection. Plasma was deproteinized and analyzed for compound using LC-MS/MS methods. Three mice were used for each time point and one control animal (Alliance Pharma Inc, Malvern PA).

The next data set concerns Raji. Briefly: Cell death of other cancer cell lines: Raji. To be noted: Homo sapiens, Burkitt lymphoma, values may change up to ±1-2 μM depending on the cell density. The class given is cell-based. The protocol:
(§3) The PROTACs prepared herein were tested for their use in other cancer cell lines to determine activity in multiple different types of cancer.

A further data set has as its system SU-DHL-8. Briefly: Cell death of other cancer cell lines: SU-DHL-8. Type of data set: cell-based. As to conditions: Homo sapiens; SU-DHL-8, Diffuse large B cell lymphoma. The protocol:
as §3

Another data set has as its system SKOV3. Briefly: Cell death of other cancer cell lines: SKOV3. The class given is cell-based. As to conditions: Homo sapiens, SK-OV-3; SKOV3, Ovarian. The protocol:
as §3

The next data set deals with OVCAR4. As to the kind of experiment: Cell death of other cancer cell lines: OVCAR4. The class given is cell-based. As to conditions: Homo sapiens, OVCAR-4; OVCAR4, Ovarian. On the procedure: as §3
Another data set concerns DE1069. Briefly: Cell death of other cancer cell lines: DE1069. The class given is cell-based. To be noted: DE1069, Sarcoma, Mouse. The protocol:
as §3

Another data set concerns the target Mdm2 (Homo sapiens, UniProt Q00987). Briefly: Western blot of TNBC cells treated with PROTAC. The class given is cell-based. Set-up: endogenous in cells; MDA-MB-231 (A9). The source says: A. Chemical structure of MDM2-PROTAC. B-C. MDM2:p53 and MDM2:VHL-HIF1α peptide binding inhibition determined by homogeneous time-resolved fluorescence (HTRF, triplicate, mean±SEM, B) and surface plasmon resonance (SPR, triplicate, mean±SD, C. Binding assays by the indicated compounds. Graphical data is representative of 3 separate experiments. D. AlphaScreen of ternary complex using GST-MDM2 and HIS-VHL; mean±SD. E-F. Western blot analysis for the proteins indicated following a dose-titration (E, 16 hr) and time course (F, 6 μM) with the PROTAC or vehicle control (DMSO, −) in MDA-MB-231 (p53-mutant) and MDA-MB-436 (p53-delete) cells. G-K. Western blot analysis for the proteins indicated following treatment with the MDM2-PROTAC and/or the neddylation activating enzyme inhibitor MLN4924 G.
PROTACs work by forming a ternary complex consisting of the target protein, the PROTAC, and the recruited E3 ubiquitin ligase-E2 complex, causing ubiquitination of the target protein, marking it for 26S proteasome-mediated degradation (Nalawansha & Crews, 2020). FIG. 19D confirms that the PROTAC forms a […] complex. […] Similarly, when the proteasome was inhibited with MG132, MDM2 protein levels were maintained despite YX-02-030 exposure (FIG. 19H). Therefore, YX-02-030 targets MDM2 protein for 26S proteasome-mediated degradation in TNBC cells and this requires the ubiquitin cascade.
A general note: In western blotting, separated proteins are transferred to a membrane and probed.

pIC50: −log10 of the molar value. “Also recorded” adds a separate entry of the source. Some results are limits rather than exact numbers.

Consider two compounds from patent US20260053931A1, “MDM2 TARGETING PROTACS” (THE WISTAR INSTITUTE OF ANATOMY AND BIOLOGY, priority 2023, published 2026).

Mdm2, sequence (Q00987 whole entry): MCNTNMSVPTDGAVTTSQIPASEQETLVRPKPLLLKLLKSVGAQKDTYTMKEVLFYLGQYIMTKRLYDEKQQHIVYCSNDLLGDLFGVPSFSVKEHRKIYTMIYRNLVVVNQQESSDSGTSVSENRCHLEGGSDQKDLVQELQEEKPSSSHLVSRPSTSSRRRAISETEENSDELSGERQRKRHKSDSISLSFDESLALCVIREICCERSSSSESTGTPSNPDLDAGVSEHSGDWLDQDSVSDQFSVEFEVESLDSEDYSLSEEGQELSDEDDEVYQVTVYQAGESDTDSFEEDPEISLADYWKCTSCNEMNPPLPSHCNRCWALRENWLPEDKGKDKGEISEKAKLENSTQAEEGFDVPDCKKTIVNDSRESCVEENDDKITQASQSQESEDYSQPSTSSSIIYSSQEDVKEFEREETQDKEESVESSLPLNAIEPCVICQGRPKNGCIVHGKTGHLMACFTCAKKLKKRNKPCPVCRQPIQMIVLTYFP

Regarding `CCOc1cc(C(C)(C)C)ccc1C1=N[C@](C)(c2ccc(Cl)cc2)[C@](C)(c2ccc(Cl)cc2)N1C(=O)N1CCN(CC(=O)NCCOCCOCCOCC(=O)N[C@H](C(=O)N2C[C@H](O)C[C@H]2C(=O)NCc2ccc(-c3scnc3C)cc2)C(C)(C)C)CC1` (racemic) [YX-02-030], in data set [1] (1 (unit uncertain)), the colony numbers result was “significant reduction in colony numbers”. In addition, in data set [1] (2 (unit uncertain)), the colonies formed was under 2 colonies. In addition, the “reduction of mammosphere area” value with MDA-MB-231 mammospheres is reported as 49.5%; in the data set on MDA-MB-436 mammospheres, 43.8%. For the same compound, the “in vivo plasma levels” value in data set [2] (10 mg/kg) is “prolonged in vivo plasma exposure; also recorded: plasma levels stable over 6 hours”. The pIC50 (usually the IC50 on a negative log10 scale, so that one unit is a factor of ten) is 5.55 in the data set on Raji; 5.72 with SU-DHL-8; 5.24 in the data set on SKOV3; 5.34 with OVCAR4; 5.21 in the data set with DE1069. In addition, the MDM2 protein level result on Mdm2 (MDA-MB-231 (mutated p53) and MDA-MB-436 (deleted p53), dose titration 16 hr, time course 6 μM) is “loss of MDM2 protein”. For the same compound, at Mdm2 (Western blot), the VHL protein level result is recorded as “not degraded”.
`CCOc1cc(C(C)(C)C)ccc1C1=N[C@](C)(c2ccc(Cl)cc2)[C@](C)(c2ccc(Cl)cc2)N1C(=O)N1CCN(CC(=O)NCCCNC(=O)COc2ccc3c(c2)CN(C(=O)[C@H](NC(=O)[C@@H](C)NC)C(C)(C)C)[C@@H](C(=O)N[C@H]2CCCc4ccccc42)C3)CC1` [YX-02-228, (R)-7-(2-((3-(2-(4-((4R,5S)-2-(4-(tert-butyl)-2-ethoxyphenyl)-4,5-bis(4-chlorophenyl)-4,5-dimethyl-4,5-dihydro-1H-imidazole-1-carbonyl)piperazin-1-yl)acetamido)propyl)amino)-2-oxoethoxy)-2-((R)-3,3-dimethyl-2-((R)-2-(methylamino)propanamido)butanoyl)-N-((S)-1,2,3,4-tetrahydronaphthalen-1-yl)-1,2,3,4-tetrahydroisoquinoline-3-carboxamide]: the “in vivo plasma levels” value in data set [2] was “prolonged in vivo plasma exposure”. Further, the pIC50 is 5.23 in the data set with Raji, 5.34 in the data set on SU-DHL-8, 5.49 in the data set with SKOV3 and 5.32 with OVCAR4.
